Results on 13 compounds are retold here after ChEMBL document CHEMBL2150908, “Discovery of 2-Alkyl-1-arylsulfonylprolinamides as 11β-Hydroxysteroid Dehydrogenase Type 1 Inhibitors” (ACS Med Chem Lett, 2012).

As a reminder, the inhibition is the relative decrease from the control value, in per cent. Low values mean a weak effect, high ones a strong effect. A word on the IC50: it is the concentration needed to halve the response being measured. Low values mean greater potency in that assay, high ones weaker potency in that assay.

Tested on in the first data set: not listed separately
The data set can be described thus: Intrinsic clearance in human liver microsomes assessed as per mg of protein. The conditions noted are these: read-out: CLH. The format is ADME, Microsome. For orientation: Liver microsomes are a subcellular fraction often used to study metabolism.
For the compound `CC(=O)c1ccc(S(=O)(=O)N2CCC[C@]2(C)C(=O)N[C@H]2C3CC4CC2C[C@](O)(C4)C3)cc1`, the microsomal CLint was determined as 12 µL/min/mg.

For `CC(O)(c1ccc(S(=O)(=O)N2CCC[C@]2(C)C(=O)N[C@H]2C3CC4CC2C[C@](O)(C4)C3)cc1)C(F)(F)F` (some centres undefined), the microsomal CLint worked out at 64 µL/min/mg.

The target in the next data set is 11-beta-hydroxysteroid dehydrogenase 1 (Mus musculus) (UniProt P50172). The data set can be described thus: Inhibition of mouse 11betaHSD1 at 100 nM by scintillation proximity assay.
11-beta-hydroxysteroid dehydrogenase 1 (Mus musculus), sequence (P50172 whole entry, looked up): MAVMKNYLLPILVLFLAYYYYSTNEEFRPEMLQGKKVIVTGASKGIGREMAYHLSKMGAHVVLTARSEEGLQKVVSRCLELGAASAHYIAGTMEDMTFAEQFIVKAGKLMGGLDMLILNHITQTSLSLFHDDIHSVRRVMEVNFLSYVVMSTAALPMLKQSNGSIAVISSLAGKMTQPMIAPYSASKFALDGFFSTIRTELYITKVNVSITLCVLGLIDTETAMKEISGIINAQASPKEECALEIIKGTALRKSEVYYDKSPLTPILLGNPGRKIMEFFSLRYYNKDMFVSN
Details: not given
Background: SPA uses beads or plates that emit light when radiolabelled molecules are held near them.
For `COC(=O)[C@]12CC3CC(C1)[C@@H](NC(=O)[C@@]1(C)CCCN1S(=O)(=O)c1ccc(C(C)(O)C(F)(F)F)cc1)C(C3)C2` (some centres undefined), the inhibition was 14%.

Take `Cc1c(Cl)cccc1S(=O)(=O)N1CCC[C@]1(C)C(=O)N[C@H]1CC[C@H](O)CC1`: the inhibition was determined as 13%.

`CO[C@H]1CC[C@H](NC(=O)[C@@]2(C)CCCN2S(=O)(=O)c2cccc(Cl)c2C)CC1` yielded an inhibition of 15%.

On to `CC(C)(C)c1ccc(S(=O)(=O)N2CCC[C@]2(C)C(=O)N[C@H]2C3CC4CC2C[C@](O)(C4)C3)cc1`, for which the inhibition came out at 12%.

For the compound `COC(=O)[C@H]1CC2COCC(C1)[C@H]2NC(=O)[C@@]1(C)CCCN1S(=O)(=O)c1cccc(Cl)c1C`, the inhibition was 33%.

The compound `CC(O)(c1ccc(S(=O)(=O)N2CCC[C@]2(C)C(=O)N[C@H]2C3CC4CC2C[C@](C#N)(C4)C3)cc1)C(F)(F)F` (some centres undefined) displayed an inhibition of 9.5%.

`Cc1c(Cl)cccc1S(=O)(=O)N1CCC[C@]1(C)C(=O)NC12CC3CC(CC(O)(C3)C1)C2` displayed an inhibition of 18%.

In turn, `CC(=O)c1ccc(S(=O)(=O)N2CCC[C@]2(C)C(=O)N[C@H]2C3CC4CC2C[C@](O)(C4)C3)cc1` gave an inhibition of 16%.

`CC(O)(c1ccc(S(=O)(=O)N2CCC[C@]2(C)C(=O)N[C@H]2C3CC4CC2C[C@](O)(C4)C3)cc1)C(F)(F)F` (some centres undefined) displayed an inhibition of 26%.

For another data set, the target named is T1, 11-beta-hydroxysteroid dehydrogenase 1 (Homo sapiens, UniProt P28845). The data set can be described thus: Inhibition of human 11betaHSD1 at 100 nM by scintillation proximity assay.
Details: not given
Target sequence in this assay (P28845 whole entry, looked up): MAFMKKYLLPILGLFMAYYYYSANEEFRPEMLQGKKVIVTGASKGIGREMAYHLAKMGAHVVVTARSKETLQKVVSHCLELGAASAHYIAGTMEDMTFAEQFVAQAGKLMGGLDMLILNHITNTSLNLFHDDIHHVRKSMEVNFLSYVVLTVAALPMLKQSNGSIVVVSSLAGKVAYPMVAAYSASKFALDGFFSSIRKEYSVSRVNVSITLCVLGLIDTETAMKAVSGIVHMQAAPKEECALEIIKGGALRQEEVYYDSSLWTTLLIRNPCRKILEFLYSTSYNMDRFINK
As to `CO[C@H]1CC[C@H](NC(=O)[C@@]2(C)CCCN2S(=O)(=O)c2cccc(Cl)c2C)CC1`, the inhibition was determined as 37%.

`C=CC[C@]1(C(=O)N[C@H]2C3CC4CC2C[C@](O)(C4)C3)CCCN1S(=O)(=O)c1cccc2cccnc12` displayed an inhibition of 33%.

In turn, `Cc1c(Cl)cccc1S(=O)(=O)N1CCC[C@]1(C)C(=O)NC12CC3CC(CC(O)(C3)C1)C2` returned an inhibition of 35%.

The target of another data set is 11-beta-hydroxysteroid dehydrogenase 1 (Mus musculus, UniProt P50172). The data set can be described thus: Inhibition of mouse 11betaHSD1 by scintillation proximity assay.
11-beta-hydroxysteroid dehydrogenase 1 (Mus musculus, UniProt P50172), sequence (P50172 whole entry): as the sequence (P50172 whole entry, looked up) above
Details: not given
In turn, `CC[C@]1(C(=O)N[C@H]2C3CC4CC2C[C@](O)(C4)C3)CCCN1S(=O)(=O)c1cccc2cccnc12` registered an IC50 of 164 nM.

As to `C=CC[C@]1(C(=O)N[C@H]2C3CC4CC2C[C@](O)(C4)C3)CCCN1S(=O)(=O)c1cccc2cccnc12`, the IC50 is 87 nM. Compared with the last compound, the IC50 is about 1.9-fold lower.

In turn, `Cc1c(Cl)cccc1S(=O)(=O)N1CCC[C@@]1(C)C(=O)N[C@H]1C2CC3CC1C[C@](O)(C3)C2` had an IC50 of 63 nM.

Compound `C[C@]1(C(=O)N[C@H]2C3CC4CC2C[C@](O)(C4)C3)CCCN1S(=O)(=O)c1ccccc1C#N` registered an IC50 of 125 nM.

In the next data set the target is T1, 11-beta-hydroxysteroid dehydrogenase 1. The data set can be described thus: Inhibition of human 11betaHSD1 by scintillation proximity assay.
Details: not given
Target sequence in this assay (P28845 whole entry): as the sequence (P28845 whole entry, looked up) above
Compound `Cc1c(Cl)cccc1S(=O)(=O)N1CCC[C@@]1(C)C(=O)N[C@H]1C2CC3CC1C[C@](O)(C3)C2` returned a half-maximal inhibitory concentration (IC50) of 3.1 nM. This lies in the single-digit nanomolar range.
